Test results from ChEMBL document CHEMBL1201862, “PubChem BioAssay data set” (2004).
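48-hour exposure; five concentrations; linearly interpolated endpoints. GI50 marks 50% less growth.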 Active and inactive are the calls of the source. Cut-off read from the data, not from the text of the source: active = GI50 up to about 1.1 µM and inactive = higher.

Legend:
Experiment in all cases: NCI-60 cell line screen, 48 h
M14 = test system: M14
HCT-15 = test system: HCT-15
MCF7 = test system: MCF7
NCI-H226 = test system: NCI-H226
HCT-116 = test system: HCT-116
K562 = test system: K562
EKVX = test system: EKVX
HOP-92 = test system: HOP-92
COLO 205 = test system: COLO 205
TK-10 = test system: TK-10
SF-295 = test system: SF-295
BT-549 = test system: BT-549
SNB-19 = test system: SNB-19
RPMI-8226 = test system: RPMI-8226
OVCAR-4 = test system: OVCAR-4
RXF 393 = test system: RXF 393
KM12 = test system: KM12
SK-MEL-5 = test system: SK-MEL-5
CCRF-CEM = test system: CCRF-CEM
MDA-MB-435 = test system: MDA-MB-435

CCc1n[nH]c(=O)n1N1C(=O)C2CC=CCC2C1=O (stereo not given)
GI50 (M14): > 100 µM (inactive) | GI50 (HCT-15): > 100 µM | GI50 (MCF7): > 100 µM (inactive) | GI50 (NCI-H226): > 100 µM (inactive) | GI50 (HCT-116): > 100 µM (inactive) | GI50 (K562): > 100 µM (inactive) | GI50 (EKVX): > 100 µM (inactive) | GI50 (HOP-92): > 100 µM (inactive) | GI50 (COLO 205): > 100 µM (inactive) | GI50 (TK-10): > 100 µM (inactive) | GI50 (SF-295): > 100 µM (inactive) | GI50 (BT-549): > 100 µM (inactive) | GI50 (SNB-19): > 100 µM (inactive) | GI50 (RPMI-8226): > 100 µM (inactive) | GI50 (OVCAR-4): > 100 µM (inactive) | GI50 (RXF 393): > 100 µM (inactive) | GI50 (KM12): > 100 µM (inactive) | GI50 (SK-MEL-5): > 100 µM (inactive) | GI50 (CCRF-CEM): > 100 µM (inactive) | GI50 (MDA-MB-435): > 100 µM (inactive)

COC(=O)C(Cc1ccccc1)NC(=O)C(CCC(=O)OCc1ccccc1)NC(=O)OC(C)(C)C (stereo not given)
GI50 (M14): > 100 µM (inactive) | GI50 (HCT-15): 85.5 µM | GI50 (MCF7): 82.8 µM (inactive) | GI50 (NCI-H226): 57.4 µM (inactive) | GI50 (HCT-116): 44.4 µM (inactive) | GI50 (K562): 26.9 µM (inactive) | GI50 (EKVX): > 100 µM (inactive) | GI50 (HOP-92): > 100 µM (inactive) | GI50 (COLO 205): > 100 µM (inactive) | GI50 (TK-10): > 100 µM (inactive) | GI50 (SF-295): > 100 µM (inactive) | GI50 (BT-549): > 100 µM (inactive) | GI50 (SNB-19): > 100 µM (inactive) | GI50 (RPMI-8226): 25 µM (inactive) | GI50 (OVCAR-4): 64 µM (inactive) | GI50 (RXF 393): > 100 µM (inactive) | GI50 (KM12): 83.9 µM (inactive) | GI50 (SK-MEL-5): > 100 µM (inactive) | GI50 (CCRF-CEM): 64.9 µM (inactive) | GI50 (MDA-MB-435): > 100 µM (inactive)

COC(=O)c1ccccc1/C=C1\Cc2c(ccc3c2CCC3)C1=O
GI50 (M14): > 100 µM (inactive) | GI50 (HCT-15): > 100 µM | GI50 (MCF7): > 100 µM (inactive) | GI50 (NCI-H226): > 100 µM (inactive) | GI50 (HCT-116): > 100 µM (inactive) | GI50 (K562): > 100 µM (inactive) | GI50 (EKVX): > 100 µM (inactive) | GI50 (HOP-92): 85.9 µM (inactive) | GI50 (COLO 205): > 100 µM (inactive) | GI50 (TK-10): > 100 µM (inactive) | GI50 (SF-295): > 100 µM (inactive) | GI50 (BT-549): > 100 µM (inactive) | GI50 (SNB-19): > 100 µM (inactive) | GI50 (RPMI-8226): > 100 µM (inactive) | GI50 (OVCAR-4): > 100 µM (inactive) | GI50 (RXF 393): > 100 µM (inactive) | GI50 (KM12): > 100 µM (inactive) | GI50 (SK-MEL-5): > 100 µM (inactive) | GI50 (CCRF-CEM): > 100 µM (inactive) | GI50 (MDA-MB-435): > 100 µM (inactive)

Nc1ccc2c3[nH]c4cc(N)ccc4cc-3nc2c1
GI50 (M14): 0.344 µM (active) | GI50 (HCT-15): 0.266 µM | GI50 (MCF7): 0.069 µM (active) | GI50 (NCI-H226): 0.174 µM (active) | GI50 (HCT-116): 0.0582 µM (active) | GI50 (K562): 5.07 µM (inactive) | GI50 (EKVX): 0.267 µM (active) | GI50 (HOP-92): 0.0422 µM (active) | GI50 (COLO 205): 0.18 µM (active) | GI50 (TK-10): 2.09 µM (inactive) | GI50 (SF-295): 0.265 µM (active) | GI50 (BT-549): 0.984 µM (active) | GI50 (SNB-19): 0.209 µM (active) | GI50 (RPMI-8226): 0.414 µM (active) | GI50 (OVCAR-4): 0.283 µM (active) | GI50 (RXF 393): 0.32 µM (active) | GI50 (KM12): 0.167 µM (active) | GI50 (SK-MEL-5): 0.237 µM (active) | GI50 (CCRF-CEM): 0.158 µM (active) | GI50 (MDA-MB-435): 0.136 µM (active)

CN1C(=O)c2c(c3c4ccccc4n(C4OC(CO)C(O)C(O)C4O)c3c3[nH]c4ccccc4c23)C1=O (stereo not given)
GI50 (M14): 2.34 µM (inactive) | GI50 (HCT-15): 4.82 µM | GI50 (MCF7): 5.51 µM (inactive) | GI50 (NCI-H226): 1.77 µM (inactive) | GI50 (HCT-116): 0.718 µM (active) | GI50 (K562): 0.736 µM (active) | GI50 (EKVX): 3.02 µM (inactive) | GI50 (HOP-92): 1.08 µM (active) | GI50 (COLO 205): 0.944 µM (active) | GI50 (TK-10): 3.12 µM (inactive) | GI50 (SF-295): 3.63 µM (inactive) | GI50 (BT-549): 4.99 µM (inactive) | GI50 (SNB-19): 0.849 µM (active) | GI50 (RPMI-8226): 16.1 µM (inactive) | GI50 (OVCAR-4): 2.37 µM (inactive) | GI50 (RXF 393): 3.55 µM (inactive) | GI50 (KM12): 3.85 µM (inactive) | GI50 (SK-MEL-5): 1.36 µM (inactive) | GI50 (CCRF-CEM): 0.268 µM (active) | GI50 (MDA-MB-435): 2.29 µM (inactive)

CSc1ncnc2c1ncn2CC(=O)C1CCC2C3CCC4=CC(=O)CCC4(C)C3CCC12C (stereo not given)
GI50 (M14): 2.4 µM (inactive) | GI50 (HCT-15): 4.56 µM | GI50 (MCF7): 3.08 µM (inactive) | GI50 (NCI-H226): 5.85 µM (inactive) | GI50 (HCT-116): 4.15 µM (inactive) | GI50 (K562): 3.47 µM (inactive) | GI50 (EKVX): 5.55 µM (inactive) | GI50 (HOP-92): 14.8 µM (inactive) | GI50 (COLO 205): 3.41 µM (inactive) | GI50 (TK-10): 4.46 µM (inactive) | GI50 (SF-295): 3.21 µM (inactive) | GI50 (BT-549): 2.58 µM (inactive) | GI50 (SNB-19): 19.2 µM (inactive) | GI50 (RPMI-8226): 1.45 µM (inactive) | GI50 (OVCAR-4): 3.49 µM (inactive) | GI50 (RXF 393): 12 µM (inactive) | GI50 (KM12): 2.84 µM (inactive) | GI50 (SK-MEL-5): 2.04 µM (inactive) | GI50 (CCRF-CEM): 0.729 µM (active) | GI50 (MDA-MB-435): 2.96 µM (inactive)

CC1=C(/C=C/C(C)=C/C=C/C(C)=C/C(=O)OC2CC(n3cc(F)c(=O)[nH]c3=O)OC2CO)C(C)(C)CCC1 (stereo not given)
GI50 (M14): 1.35 µM (inactive) | GI50 (HCT-15): 4.35 µM | GI50 (MCF7): 0.057 µM (active) | GI50 (NCI-H226): 25.4 µM (inactive) | GI50 (HCT-116): 0.748 µM (active) | GI50 (K562): 1.63 µM (inactive) | GI50 (EKVX): 13.9 µM (inactive) | GI50 (HOP-92): 11.3 µM (inactive) | GI50 (COLO 205): 6.93 µM (inactive) | GI50 (TK-10): 11.5 µM (inactive) | GI50 (SF-295): 0.148 µM (active) | GI50 (BT-549): 1.58 µM (inactive) | GI50 (SNB-19): 3.34 µM (inactive) | GI50 (RPMI-8226): 0.254 µM (active) | GI50 (OVCAR-4): 6.01 µM (inactive) | GI50 (RXF 393): 6.3 µM (inactive) | GI50 (KM12): 12.2 µM (inactive) | GI50 (SK-MEL-5): 1.18 µM (inactive) | GI50 (CCRF-CEM): 0.374 µM (active) | GI50 (MDA-MB-435): 3.97 µM (inactive)

CCOc1ccc(/N=N/S(=O)(=O)O)cc1
GI50 (M14): > 100 µM (inactive) | GI50 (HCT-15): > 100 µM | GI50 (MCF7): > 100 µM (inactive) | GI50 (NCI-H226): > 100 µM (inactive) | GI50 (HCT-116): > 100 µM (inactive) | GI50 (K562): > 100 µM (inactive) | GI50 (EKVX): > 100 µM (inactive) | GI50 (HOP-92): > 100 µM (inactive) | GI50 (COLO 205): > 100 µM (inactive) | GI50 (TK-10): > 100 µM (inactive) | GI50 (SF-295): > 100 µM (inactive) | GI50 (BT-549): > 100 µM (inactive) | GI50 (SNB-19): > 100 µM (inactive) | GI50 (RPMI-8226): > 100 µM (inactive) | GI50 (OVCAR-4): > 100 µM (inactive) | GI50 (RXF 393): > 100 µM (inactive) | GI50 (KM12): > 100 µM (inactive) | GI50 (SK-MEL-5): > 100 µM (inactive) | GI50 (CCRF-CEM): > 100 µM (inactive) | GI50 (MDA-MB-435): > 100 µM (inactive)

O=C1NC(c2ccccc2Cl)Nc2ccccc21 (stereo not given)
GI50 (M14): 10.5 µM (inactive) | GI50 (HCT-15): 3.9 µM | GI50 (MCF7): > 65.3 µM (inactive) | GI50 (NCI-H226): 41.8 µM (inactive) | GI50 (HCT-116): 7.24 µM (inactive) | GI50 (K562): 3.77 µM (inactive) | GI50 (EKVX): 27.7 µM (inactive) | GI50 (HOP-92): 44.4 µM (inactive) | GI50 (COLO 205): 8.49 µM (inactive) | GI50 (TK-10): > 53.1 µM (inactive) | GI50 (SF-295): 13.9 µM (inactive) | GI50 (BT-549): 28.4 µM (inactive) | GI50 (SNB-19): 15.1 µM (inactive) | GI50 (RPMI-8226): 7.73 µM (inactive) | GI50 (OVCAR-4): 27.5 µM (inactive) | GI50 (RXF 393): 15.3 µM (inactive) | GI50 (KM12): 3.76 µM (inactive) | GI50 (SK-MEL-5): 5.57 µM (inactive) | GI50 (CCRF-CEM): 11.4 µM (inactive) | GI50 (MDA-MB-435): 1.65 µM (inactive)

O=C1CSC2=NCC3(NN12)c1ccccc1-c1ccccc13
GI50 (M14): > 10 µM (inactive) | GI50 (HCT-15): > 10 µM | GI50 (MCF7): > 10 µM (inactive) | GI50 (NCI-H226): > 10 µM (inactive) | GI50 (HCT-116): > 10 µM (inactive) | GI50 (K562): > 10 µM (inactive) | GI50 (EKVX): > 10 µM (inactive) | GI50 (HOP-92): > 10 µM (inactive) | GI50 (COLO 205): > 10 µM (inactive) | GI50 (TK-10): > 10 µM (inactive) | GI50 (SF-295): > 10 µM (inactive) | GI50 (BT-549): > 10 µM (inactive) | GI50 (SNB-19): > 10 µM (inactive) | GI50 (RPMI-8226): > 10 µM (inactive) | GI50 (OVCAR-4): > 10 µM (inactive) | GI50 (RXF 393): > 10 µM (inactive) | GI50 (KM12): > 10 µM (inactive) | GI50 (SK-MEL-5): > 10 µM (inactive) | GI50 (CCRF-CEM): > 10 µM (inactive) | GI50 (MDA-MB-435): > 10 µM (inactive)
